Measured values from patent US20100286164A1, “SUBSTITUTED ARYL ALKYLAMINO-OXY-ANALOGS AND USES THEREOF” (The Brigham and Women's Hospital, Inc, priority 2007, published 2010).

How the values were obtained:
Type in all cases: biochemical
[1] = biological target: T1, γ-secretase (N100FLAG Notch-based substrate) (Homo sapiens, UniProt P49768); assay: In vitro γ-secretase assay, N-100 Flag (Notch-based substrate) cleavage; conditions: effect on N-100 Flag cleavage; compounds tested in vitro at 100 μM
T1 construct: made in house; host or cells: S-1 CHO cell line (Chinese hamster ovary)
Procedure: (§1) Purification of γ-Secretase and in Vitro γ-Secretase Assays—The following procedures can be used to isolate γ-secretase and measure its enzymatic activity. The multistep procedure for the high grade purification of human γ-secretase from the S-1 cells is performed as described previously (Fraering, P. C., et al. (2004) Biochemistry 43, 9774-9789). In vitro γ-secretase assays using the recombinant APP-based substrate C100FLAG and the recombinant Notch-based substrate N100FLAG are performed as reported previously (Esler, W. P., Kimberly, W. T., Ostaszewski, B. L., Ye, W., Diehl, T. S., Selkoe, D. J., and Wolfe, M. S. (2002) Proc. Natl. Acad. Sci. U.S.A. 99, 2720-2725, Kimberly, W. T., et al. (2003) Biochemistry 42, 137-144). Basically, the proteolytic reaction mixtures contain C100FLAG and N100FLAG substrate at a concentration of 1 μm, purified γ-secretase solubilized in 0.2% CHAPSO/HEPES, pH 7.5, at 10-fold dilution from stock (stock=the M2 anti-FLAG-eluted fraction in the purification protocol from S-1 cells (Fraering, P. C., et al. (2004) Biochemistry 43, 9774-9789)), 0.025% phosphatidylethanolamine (PE), and 0.10% phosphatidylcholine (PC). All the reactions are stopped by adding 0.5% SDS, and the samples are assayed for Aβ40 and Aβ42 by ELISA as described (Xia, W., Zhang, J., Ostaszewski, B. L., Kimberly, W. T., Seubert, P., Koo, E. H., Shen, J., and Selkoe, D. J. (1998) Biochemistry 37, 16465-16471). The capture antibodies are 2G3 (to Aβ residues 33-40) for the Aβ40 species and 21F12 (to Aβ residues 33-42) for the Aβ42 species.
(§2) Western Blotting and Antibodies—The following assay can be used to determine the extent to which the compounds of interest modulate the cleavage of APP and the Notch receptor. For Western analysis of PS1-NTF, PS1-CTF, Aph1α2-HA, FLAG-Pen-2, and NCT-GST, the samples are run on 4-20% Tris-glycine polyacrylamide gels, transferred to polyvinylidene difluoride, and can be probed with Ab14 (for PS1-NTF, 1:2000; a gift of S. Gandy), 13A11 (for PS1-CTF, 5 μg/ml; a gift of Elan Pharmaceuticals), 3F10 (for Aph1α2-HA, 50 ng/ml; Roche Applied Science), anti-FLAG M2 (for FLAG-Pen-2, 1:1000; Sigma), or αGST antibodies (for NCT-GST, 1:3000; Sigma). Samples from the γ-secretase activity assays (above) are run on 4-20% Tris-glycine gels and can be transferred to polyvinylidene difluoride membranes to detect AICD-FLAG with anti-FLAG M2 antibodies (1:1000, Sigma) and NICD-FLAG with Notch Ab1744 antibody (1:1000, Cell Signaling Technology), which is selective for the N terminus of NICD; the same samples are transferred to nitrocellulose membranes to detect Aβ with the anti-Aβ 6E10 antibody. Levels of AICD-FLAG and NICD-FLAG are estimated by densitometry using AlphaEase/Spot Denso (Alpha Innotech Corp.).
(§3) Naphthyl Amine Alcohol Analogs and Assay Data—Compounds listed in Table 2 may be assayed as described herein (e.g., in Examples 3 and 4) and the specificity may be evaluated by comparing the relative inhibitions of C-100 Flag and N-100 Flag cleavage. The potency of the inhibitor may be evaluated with an Aβ1-40 ELISA assay (e.g., using an Aβ40 ELISA kit available from Invitrogen, Carlsbad, Calif.). […] The following table indicates the properties of certain compounds of the invention that were assayed as described herein. (INH=Inhibits)

[2] = biological target: T2, γ-secretase (C100FLAG APP-based substrate) (Homo sapiens, UniProt P49768); assay: In vitro γ-secretase assay, C-100 Flag (APP-based substrate) cleavage; conditions: effect on C-100 Flag cleavage; compounds tested in vitro at 100 μM
T2 construct: made in house; host or cells: S-1 CHO cell line (Chinese hamster ovary)
Procedure: as §1, §2, §3

[3] = biological target: T3, γ-secretase (Aβ1-40 production) (Homo sapiens, UniProt P49768); assay: γ-Secretase assay, Aβ1-40 ELISA; conditions: 100 μM
T3 construct: made in house; host or cells: S-1 CHO cell line (Chinese hamster ovary)
Procedure: as §1, §3

| Compound | γ-Secretase Assay N-100 Flag [1] | γ-Secretase Assay C-100 Flag [2] | inhibition at 100 µM [3] [%] | γ-Secretase Assay ELISA % Inhibition [100 μM] Aβ1-40 [3] [%] |
| --- | --- | --- | --- | --- |
| CC(C)N(CCC(O)c1ccc2ccccc2c1)Cc1ccccc1 (centres unmarked) [Example 1, 3-(benzyl(isopropyl)amino)-1-(naphthalen-2-yl)propan-1-ol] | Enhances (Enh) | Inhibits (Inh) | 16 |  |
| OC(CCN1CCN(c2cccc(C(F)(F)F)c2)CC1)c1ccc2ccccc2c1 (centres unmarked) [Example 13] | Enh | Enh | 38 |  |
| OC(CCN1CCN(c2ccc(F)cc2)CC1)c1ccc2ccccc2c1 (centres unmarked) [Example 14, 3-(4-(4-fluorophenyl)piperazin-1-yl)-1-(naphthalen-2-yl)propan-1-ol] | Enh | Inh | 61 |  |
| CC(C)N(CCC(O)c1ccc2ccccc2c1)Cc1ccc(Cl)c(Cl)c1 (centres unmarked) [Example 17] | Enh | Inh | 60 |  |
| CC(C)N(CCC(O)c1ccc2ccccc2c1)Cc1ccc(F)c(F)c1 (centres unmarked) [Example 18] | Enh | Inh | 64 |  |
| CC(C)N(CCC(O)c1cccc2ccccc12)Cc1ccccc1 (centres unmarked) [Example 19] | Enh. | Inh | 46 |  |
| CC(C)N(CCC(O)c1ccc2ccccc2c1)c1ccccc1 (centres unmarked) [Example 20] | Inh | Inh | 68 |  |
| CC(C)N(CCC(O)c1ccc2ccccc2c1)Cc1cc(F)cc(F)c1 (centres unmarked) [Example 31] | Inh | Inh | 54 |  |
| CCOc1ccc(NCCC(O)c2ccc3ccccc3c2)cc1 (centres unmarked) [Example 32] | Inh | Inh | 40 |  |
| OC(CCNc1ccc(F)c(Cl)c1)c1ccc2ccccc2c1 (centres unmarked) [Example 33] | Inh | Inh | 40 |  |

Continued, values first:

| γ-Secretase Assay N-100 Flag [1] | γ-Secretase Assay C-100 Flag [2] | inhibition at 100 µM [3] [%] | γ-Secretase Assay ELISA % Inhibition [100 μM] Aβ1-40 [3] [%] | Compound |
| --- | --- | --- | --- | --- |
| Enh |  |  | 56 | CN(CCC(O)c1ccc2ccccc2c1)Cc1ccccc1 (centres unmarked) [Example 44] |
| Inh |  | 29 |  | Cc1ccc(C(O)CCN(Cc2ccccc2)C(C)C)cc1F (centres unmarked) [Example 54] |
| Inh |  | 30 |  | CC(C)N(CCC(O)c1cc(F)cc(Cl)c1)Cc1ccccc1 (centres unmarked) [Example 55] |
| Inh |  | 20 |  | Cc1cccc(C)c1C(O)CCN(Cc1ccccc1)C(C)C (centres unmarked) [Example 56] |
| Inh |  | 47 |  | CC(C)N(CCC(O)c1cc(C(F)(F)F)cc(C(F)(F)F)c1)Cc1ccccc1 (centres unmarked) [Example 57] |
| Inh |  | 0 |  | CC(C)N(CC[C@@H](O)c1ccc2ccccc2c1)Cc1ccccc1 [Example 75] |
| Enh |  | 0 |  | OC(CN1CCN(c2ccccc2)CC1)c1ccc2ccccc2c1 (centres unmarked) [Example 81] |
| Inh | Inh | 0 |  | CC(C)N(Cc1ccccc1)CC(O)c1ccc2ccccc2c1 (centres unmarked) [Example 82] |
| Inh | Inh | 46 |  | O=[N+]([O-])c1cc(NCCC(O)c2ccc3ccccc3c2)ccc1Cl (centres unmarked) [Example 83] |
